Laboratory results reported in patent publication US8802712B2, “Pyrazoloquinolines” (Merck Patent GmbH, priority 2010, dated 2014).
Counter-ions that a name gives are not always drawn.

Target: DNA-PK (Homo sapiens (Human), UniProt P78527)
Experiment: DNA-PK/Biochemical Assay (FlashPlate kinase assay)
Details: 5 μM ATP, 90 min, room temperature
Method: The kinase assay was carried out in streptavidin-coated […] microtitre FlashPlates®. To this end, 1.5 μg of the DNA-PK/protein complex and 100 ng of biotinylated substrate, such as, for example, […] biotin-NH2 (“biotin-DNA-PK peptide”), in a total volume of 36.5 μl (34.25 mM HEPES/KOH, 7.85 mM Tris-HCl, 68.5 mM KCl, 5 μM ATP, 6.85 mM MgCl2, 0.5 mM EDTA, 0.14 mM EGTA, 0.69 mM DTT, pH 7.4), were incubated at room temperature for 90 min with 500 ng of DNA from calf thymus, 0.1 μCi of 33P-ATP and 1.8% of DMSO per well with or without the test compound. The reaction was stopped using 50 μl/well of 200 mM EDTA. After incubation for a further 30 min at room temperature, the liquid was removed. Each well was washed three times with 100 μl of 0.9% sodium chloride solution. A non-specific reaction (blank value) was determined using 10 μM of a proprietary kinase inhibitor. The radioactivity measurement was carried out by means of a TopCount. IC50 values were calculated in RS1. • Literature: Kashishian et al. (2003) Molecular Cancer Therapeutics 1257.

| SMILES | IC50 |
| --- | --- |
| COC(=O)C(Oc1cc2c(cc1OC)ncc1c2c(-c2ccc(C#N)cc2)nn1C)c1ccc(F)cc1 (stereo not drawn) [Compound 18, Methyl 1-(4-cyanophenyl)-7-methoxy-3-methyl-3H-pyrazolo[3,4-c]quinolin-8-yloxy]-(4-fluorophenyl)-acetate] | 100 to 500 nM |
| COc1cc2c(cc1OC(F)F)ncc1c2c(-c2ccc(C#N)cc2)nn1C [Compound 26, 4-(7-Difluoromethoxy-8-methoxy-3-methyl-3H-pyrazolo[3,4-c]quinolin-1-yl)-benzonitrile] | > 500 nM |
| CCCCn1nc(-c2ccc(C#N)cc2)c2c3cc(OC)c(OC)cc3ncc21 [Compound 58, 4-(3-Butyl-7,8-dimethoxy-3H-pyrazolo[3,4-c]quinolin-1-yl)-benzonitrile] | > 500 nM |
| COc1cc2c(cc1OCC(O)CO)ncc1c2c(-c2ccc(C#N)cc2)nn1C (stereo not drawn) [Compound 47, 4-[7-(2,3-Dihydroxypropoxy)-8-methoxy-3-methyl-3H - pyrazolo[3,4-c]quinolin-1-yl]-benzonitrile] | > 500 nM |
| COc1cc2ncc3c(c(-c4ccc(C#N)cc4)nn3C)c2cc1OC(C(=O)NOCC#N)c1ccc(F)cc1 (stereo not drawn) [Compound 51, N-Cyanomethoxy-2-[1-(4-cyanophenyl)-7-methoxy-3-methyl-3H-pyrazolo[3,4-c]-quinolin-8-yloxy]-2-(4-fluorophenyl)-acetamide] | 100 to 500 nM |
| COc1cc2ncc3c(c(-c4ccc(C#N)cc4)nn3CC(=O)O)c2cc1OC [Compound 67, [1-(4-Cyanophenyl)-7,8-dimethoxypyrazolo[3,4-c]-quinolin-3-yl]acetic acid] | 100 to 500 nM |
| COc1cc2ncc3c(c(-c4ccc(C#N)cc4)nn3C)c2cc1OC(F)(F)c1ccccc1 [Compound 17, 4-[8-(Difluorophenyl-methoxy)-7-methoxy-3-methyl-3H-pyrazolo[3,4-c]-quinolin-1-yl]benzonitrile] | 100 to 500 nM |
| COc1cc2ncc3c(c(-c4ccc(C#N)cc4)nn3C(C)C)c2cc1OC [Compound 60, 4-(3-Isopropyl-7,8-dimethoxy-3H-pyrazolo[3,4-c]quinolin-1-yl)benzonitrile] | 100 to 500 nM |
| COc1cc2ncc3n[nH]c(-c4ccc(C#N)c(-c5ccccc5)c4)c3c2cc1OC [Compound 74, 5-(7,8-Dimethoxy-3H-pyrazolo[3,4-c]quinolin-1-yl)biphenyl-2-carbonitrile] | > 500 nM |
| COc1cc2ncc3c(c(-c4ccc(C#N)cc4)nn3C)c2cc1OC(C(=O)NCCS(N)(=O)=O)c1ccc(F)cc1 (stereo not drawn) [Compound 52, 2-[1-(4-Cyano-phenyl)-7-methoxy-3-methyl-3H-pyrazolo-[3,4-c]quinolin-8-yl-oxy]-2-(4-fluoro-phenyl)-N-(2-sulfamoylethyl)-acetamide] | 100 to 500 nM |
| COc1cc2ncc3c(c(-c4ccc(C#N)cc4)nn3C)c2cc1OCc1cccc(CN)c1 [Compound 32, 4-[8-(3-Aminomethyl-benzyloxy)-7-methoxy-3-methyl-3H-pyrazolo[3,4-c]-quinolin-1-yl]benzonitrile hydrochloride] | 100 to 500 nM |
| COc1cc2ncc3c(c(-c4ccc(C#N)cc4)nn3C3CC3)c2cc1OC [Compound 62, 4-(3-Cyclopropyl-7,8-dimethoxy-3H-pyrazolo[3,4-c]-quinolin-1-yl)benzonitrile] | 100 to 500 nM |
| COc1cc2ncc3c(c(-c4ccc(C#N)cc4)nn3C)c2cc1OCc1ccccn1 [Compound 13, 4-[7-Methoxy-3-methyl-8-(pyridin-2-ylmethoxy)-3H-pyrazolo[3,4-c]quinolin-1-yl]-benzonitrile] | > 500 nM |
| COc1cc2ncc3c(c(-c4ccc(C#N)cc4)nn3C)c2cc1OC(F)F [Compound 16, 4-(8-Difluoromethoxy-7-methoxy-3-methyl-3H-pyrazolo[3,4-c]quinolin-1-yl)-benzonitrile] | < 100 nM |
| COc1cc2ncc3c(c(-c4ccc(C#N)cc4)nn3C)c2cc1OC(C)(C(=O)O)c1ccccc1 (stereo not drawn) [Compound 22, 2-[1-(4-Cyanophenyl)-7-methoxy-3-methyl-3H-pyrazolo[3,4-c]quinolin-8-yloxy]-2-phenylpropanoic acid] | > 500 nM |
| COc1cc2ncc3c(c(-c4ccc(C#N)cc4F)nn3Cc3cccnc3)c2cc1OC [Compound 64, 4-(7,8-Dimethoxy-3-pyridin-3-ylmethyl-3H-pyrazolo[3,4-c]-quinolin-1-yl)-3-fluoro-benzonitrile] | > 500 nM |
| COc1cc2ncc3c(c(-c4ccc(C#N)cc4)nn3C(F)F)c2cc1OC [Compound 69, 4-(3-Difluoromethyl-7,8-dimethoxy-3H-pyrazolo[3,4-c]-quinolin-1-yl)benzonitrile] | < 100 nM |
| COc1cc2ncc3c(c(-c4ccc(C#N)cc4)nn3C)c2cc1O[C@@H](C(N)=O)c1ccc(F)cc1 [Compound 9, (R)-2-[1-(4-Cyanophenyl)-7-methoxy-3-methyl-3H-pyrazolo[3,4-c]quinolin-8-yloxy]-2-(4-fluorophenyl)-acetamide] | < 100 nM |
| COc1cc2ncc3c(c(-c4ccc(C#N)cc4)nn3CC(C)C)c2cc1OC [Compound 61, 4-(3-lsobutyl-7,8-dimethoxy-3H-pyrazolo[3,4-c]quinolin-1-yl)benzonitrile] | > 500 nM |
| COc1cc2ncc3c(c(-c4ccc(C#N)cc4)nn3C)c2cc1OCc1ccc(F)cc1 [Compound 15, 4-[8-(4-Fluorobenzyloxy)-7-methoxy-3-methyl-3H-pyrazolo[3,4-c]quinolin-1-yl]-benzonitrile] | < 100 nM |
| COc1cc2ncc3c(c(-c4ccc(C#N)cc4)nn3C)c2cc1OCc1cccc(CN2CCN(C)CC2)c1 [Compound 44, 4-{7-Methoxy-3-methyl-8-[3-(4-methylpiperazin-1-yl-methyl)benzyloxy]-3H-pyrazolo[3,4-c]quinolin-1-yl}-benzonitrile] | > 500 nM |
| COCc1cc(-c2nn(C)c3cnc4cc(OC)c(OC)cc4c23)ccc1C#N [Compound 71, 4-(7,8-Dimethoxy-3-methyl-3H-pyrazolo[3,4-c]quinolin-1-yl)-2-methoxymethyl-benzonitrile] | < 100 nM |
| COc1cc2ncc3c(c(-c4ccc(C#N)cc4)nn3C)c2cc1OCc1cncs1 [Compound 43, 4-[7-Methoxy-3-methyl-8-(thiazol-5-ylmethoxy)-3H-pyrazolo[3,4-c]quinolin-1-yl]-benzonitrile] | < 100 nM |
| COc1cc2ncc3c(c(-c4ccc(C#N)cc4F)nn3C)c2cc1O [Compound 6, 3-Fluoro-4-(8-hydroxy-7-methoxy-3-methyl-3H-pyrazolo[3,4-c]quinolin-1-yl)benzonitrile] | < 100 nM |
| COc1cc2ncc3[nH]nc(-c4ccc(C#N)c(Cl)c4)c3c2cc1OC [Compound 7, 2-Chloro-4-(7,8-dimethoxy-3H-pyrazolo-[3,4-c]quinolin-1-yl)-benzonitrile] | < 100 nM |

Results, then the molecule that gave them:

| IC50 | SMILES |
| --- | --- |
| < 100 nM | COc1cc2ncc3c(c(-c4ccc(-c5ccn[nH]5)cc4)nn3C)c2cc1OCc1cncs1 [Compound 79, 7-Methoxy-3-methyl-1-[4-(2H-pyrazol-3-yl)phenyl]-8-(thiazol-5-ylmethoxy)-3H-pyrazolo[3,4-c]quinoline] |
| < 100 nM | COc1cc2ncc3n[nH]c(-c4ccc(C#N)c(C(=O)O)c4)c3c2cc1OC [Compound 73, 2-Cyano-5-(7,8-dimethoxy-3H-pyrazolo[3,4-c]quinolin-1-yl)benzoic acid] |
| < 100 nM | COc1cc2ncc3c(c(-c4ccc(C#N)cc4F)nn3C)c2cc1-c1cnc2ccccc2c1 [Compound 78, 3-Fluoro-4-(7-methoxy-3-methyl-8-quinolin-3-yl-3H-pyrazolo[3,4-c]-quinolin-1-yl)-benzonitrile] |
| < 100 nM | COc1cc2ncc3c(c(-c4ccc(C#N)cc4)nn3C)c2cc1OC(C(=O)O)c1cccs1 (stereo not drawn) [Compound 21, [1-(4-Cyanophenyl)-7-methoxy-3-methyl-3H-pyrazolo[3,4-c]quinolin-8-yloxy]thiophen-2-ylacetic acid] |
| < 100 nM | COc1cc2ncc3c(c(-c4ccc(C#N)cc4)nn3C)c2cc1O [Compound 5, 4-(8-Hydroxy-7-methoxy-3-methyl-3H-pyrazolo-[3,4-c]quinolin-1-yl)-benzonitrile] |
| < 100 nM | COc1cc2ncc3c(c(-c4ccc(C#N)cc4)nn3CC#N)c2cc1OC [Compound 66, 4-(3-Cyanomethyl-7,8-dimethoxy-3H-pyrazolo[3,4-c]-quinolin-1-yl)benzonitrile] |
| < 100 nM | COc1cc2ncc3c(c(-c4ccc(C#N)cc4)nn3C)c2cc1OC(C(=O)NC(=N)N)c1ccc(F)cc1 (stereo not drawn) [Compound 54, N-[2-[1-(4-Cyano-phenyl)-7-methoxy-3-methyl-3H-pyrazolo-[3,4-c]quinolin-8-yl-oxy]-2-(4-fluoro-phenyl)acetyl]-guanidine] |
| < 100 nM | COc1cc2ncc3c(c(-c4ccc(C#N)cc4)nn3C)c2cc1OC(C(=O)NO)c1ccc(F)cc1 (stereo not drawn) [Compound 53, 2-[1-(4-Cyano-phenyl)-7-methoxy-3-methyl-3H-pyrazolo-[3,4-c]quinolin-8-yloxy]-2-(4-fluoro-phenyl)-N-hydroxy-acetamide] |
| < 100 nM | COc1cc2ncc3c(c(-c4ccc(-c5ccn[nH]5)cc4)nn3C)c2cc1-c1cn[nH]c1 [Compound 88, 7-Methoxy-3-methyl-8-(1H-pyrazol-4-yl)-1-[4-(2H-pyrazol-3-yl)phenyl]-3H-pyrazolo[3,4-c]quino-line] |
| < 100 nM | COc1cc2ncc3c(c(-c4ccc(C#N)cc4)nn3C)c2cc1OCc1cc(Br)cs1 [Compound 36, 4-[8-(4-Bromothiophen-2-ylmethoxy)-7-methoxy-3-methyl-3H-pyrazolo[3,4-c]-quinolin-1-yl]benzonitrile] |
| < 100 nM | COc1cc2ncc3c(c(-c4ccc(C#N)c(Br)c4)nn3C)c2cc1OC [Compound 3] |
